This is an account of results in patent US20110118220A1, “Composition of bifonazole and its use” (priority 2009, published 2011).

Series [1] is described as follows: Allergy study (repeated skin contact). It counts as in vivo. The text has this:
Observe the immune system response on skin after repeating skin contact animal skin with testing object.

Series [2] deals with 543 common fungi. Briefly: In vitro pharmacodynamics of nine antifungal agents against 543 common fungi. The series is classed as cell-based.
From the text: (§1) To understand the in vivo and in vitro antibacterial effects, and to determine the in vivo and in vitro antibacterial activity through measuring the compound Bifonazole cream (Bifonazole/Triamcinolone acetonide acetate) on common pathogenic fungi of the minimum inhibitory concentration (MIC).
Series [3] deals with filamentous fungi represented by Trichophyton rubrum. Description: In vitro antifungal activity (MIC), filamentous fungi. The series is classed as cell-based.
From the text: as §1
The nature of series [4]: Long-term toxicity study by skin exposure. Conditions: rat. The series is classed as in vivo, rats. The source says:
Observe the abnormal reaction and degree of reversibility of the reaction caused by skin penetration through long-term exposure the animal's skin to subject drug.

For series [5], the system named is candida such as candida Albicans. Briefly: In vitro antifungal activity (MIC), candida. It counts as cell-based.
From the text: as §1

With `O=[N+]([O-])c1ccc(Cl)c([N+](=O)[O-])c1` [2,4-dinitro-chlorobenzene], the average response is given as 2.4 in series [1] (24 hours), 2.7 in series [1] (48 hours), 2.9 in series [1] (72 hours) and 2.4 in series [1] (by instance). In series [1] (in vivo), this molecule yielded an allergenic rate of 100%. In addition, the erythema and edema in series [1] (in vivo) is 10 animals all have erythema and edema.

Turning to `c1ccc(-c2ccc(C(c3ccccc3)n3ccnc3)cc2)cc1` (stereo not shown) [Bifonazole], in series [2], the “antimicrobial activity against common fungal skin infections compared with econazole, ketoconazole, clotrimazole and miconazole” value is “slightly stronger”. In addition, the “antibacterial activity on filamentous fungi” value in series [3] is “strong antibacterial activity”. In series [4], the “minimum toxic dosage on main target organ (liver)” value came to 2 g/kg. Besides, in series [5], the “antibacterial activity on candida” value was “a certain antibacterial activity”.
